Measured values as given in patent publication EP0672658B1, “Antithrombotic agents” (priority 1994, dated 1995).
Counter-ions that a name gives are not always drawn.

How the values were obtained:
Human Thrombin = Human Thrombin (Homo sapiens, UniProt P00734); assay: biochemical; conditions: read-out: Kass Human Thrombin (converted)
Trypsin = target: T1, Trypsin (Bos taurus, UniProt P00760); assay: biochemical; design: species or system Bovine; conditions: read-out: Kass Trypsin (converted)
T1 sequence (P00760 24-246): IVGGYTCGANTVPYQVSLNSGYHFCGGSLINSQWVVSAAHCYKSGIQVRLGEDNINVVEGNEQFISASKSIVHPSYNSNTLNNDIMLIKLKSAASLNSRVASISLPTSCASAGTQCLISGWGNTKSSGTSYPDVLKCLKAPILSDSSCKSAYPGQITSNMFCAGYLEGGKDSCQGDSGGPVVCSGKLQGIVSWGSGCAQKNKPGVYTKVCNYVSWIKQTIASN
Method: (§1) By substantially following the procedures described above for human thrombin, and using other human blood coagulation system serine proteases and proteases of the fibrinolytic system with the appropriate chromogenic substrates, identified below, selectivity of the compounds of the present invention with respect to the coagulation factor serine proteases and with respect to the fibrinolytic system serine proteases are evaluated as well as their substantial lack of interference with serine proteases of the fibrinolytic system. Thrombin inhibitors preferably should spare fibrinolysis induced by urokinase, tissue plasminogen activator (t-PA) and streptokinase. This would be important to the therapeutic use of such agents as an adjunct to streptokinase, t-PA or urokinase thrombolytic therapy and to the use of such agents as an endogenous fibrinolysis-sparing (with respect to t-PA and urokinase) antithrombotic agent. In addition to the lack of interference with the amidase activity of the fibrinolytic proteases, such fibrinolytic system sparing can be studied by the use of human plasma clots and their lysis by the respective fibrinolytic plasminogen activators.
(§2) Human factors X, Xa, IXa, XIa, and XIIa are purchased from Enzyme Research Laboratories, South Bend, Indiana; human urokinase from Leo Pharmaceuticals, Denmark; and recombinant activated Protein C (aPC) is prepared at Eli Lilly and Co. substantially according to U.S. Patent 4,981,952. Chromogenic substrates: N-Benzoyl-Ile-Glu-Gly-Arg-p-nitroanilide (for factor Xa); N-Cbz-D-Arg-Gly-Arg-p-nitroanilide (for factor IXa assay as the factor Xa substrate); Pyroglutamyl-Pro-Arg-p-nitroanilide (for Factor XIa and for aPC); H-D-Pro-Phe-Arg-p-nitroanilide (for factor XIIa); and Pyroglutamyl-Gly-Arg-p-nitroanilide (for urokinase); are purchased from KabiVitrum, Stockholm, Sweden, or from Midwest Biotech, Fishers, Indiana. Bovine trypsin is purchased from Worthington Biochemicals, Freehold, New Jersey, and human plasma kallikrein from Kabi Vitrum, Stockholm, Sweden. Chromogenic substrate H-D-Pro-Phe-Arg-p-nitroanilide for plasma kallikrein is purchased from Kabi Vitrum, Stockholm, Sweden. N-Benzoyl-Phe-Val-Arg-p-nitroanilide, the substrate for human thrombin and for trypsin, is synthesized according to procedures described above for the compounds of the present invention, using known methods of peptide coupling from commercially available reactants or purchased from Midwest Biotech, Fishers, Indiana.

human or animal plasma [1] = assay: Anticoagulation determination in plasma: thrombin time (TT); format: biochemical; conditions: concentration doubling thrombin time
Method: (§3) Dog plasma and rat plasma is obtained from conscious mixed-breed hounds (either sex, Hazelton-LRE, Kalamazoo, Michigan, U.S.A.) or from anesthetized male Sprague-Dawley rats (Harlan Sprague-Dawley, Inc., Indianapolis, Indiana, U.S.A.) by venipuncture into 3.8 percent citrate. Fibrinogen is prepared from in-date ACD human blood as the fraction I-2 according to previous procedures and specifications. Smith, Biochem. J., 185, 1-11 (1980); and Smith, et al., Biochemistry, 11, 2958-2967 (1972). Human fibrinogen is also purchased as 98 percent pure/plasmin free from American Diagnostica, Greenwich, Connecticut. Coagulation reagents ACTIN, Thromboplastin, and Human plasma are from Baxter Healthcare Corp., Dade Division, Miami, Florida. Bovine thrombin from Parke-Davis (Ann Detroit, Michigan) is used for coagulation assays in plasma.
(§4) Coagulation assay procedures are as previously described. Smith, et al., Thrombosis Research, 50, 163-174 (1988). A CoAScreener coagulation instrument (American LABor, Inc.) is used for all coagulation assay measurements. The prothrombin time (PT) is measured by adding 0.05 mL saline and 0.05 mL Thromboplastin-C reagent to 0.05 mL test plasma. The activated partial thromboplastin time (APTT) is measured by incubation of 0.05 mL test plasma with 0.05 mL Actin reagent for 120 seconds followed by 0.05 mL CaCl2 (0.02 M). The thrombin time (TT) is measured by adding 0.05 mL saline and 0.05 mL thrombin (10 NIH units/mL) to 0.05 mL test plasma. The compounds of Formula I are added to human or animal plasma over a wide range of concentrations to determine prolongation effects on the APTT, PT, and TT assays. Linear extrapolations are performed to estimate the concentrations required to double the clotting time for each assay.

human or animal plasma [2] = assay: Anticoagulation determination in plasma: activated partial thromboplastin time (APTT); format: biochemical; conditions: concentration doubling activated partial thromboplastin time
Method: as §3, §4

human or animal plasma [3] = assay: Anticoagulation determination in plasma: prothrombin time (PT); format: biochemical; conditions: concentration doubling prothrombin time
Method: as §3, §4

factor Xa = factor Xa (Homo sapiens, UniProt P00742); assay: biochemical; conditions: read-out: Kass Xa (converted)
Method: as §1, §2

factor Xa, sequence (P00742 235-488 limits assumed): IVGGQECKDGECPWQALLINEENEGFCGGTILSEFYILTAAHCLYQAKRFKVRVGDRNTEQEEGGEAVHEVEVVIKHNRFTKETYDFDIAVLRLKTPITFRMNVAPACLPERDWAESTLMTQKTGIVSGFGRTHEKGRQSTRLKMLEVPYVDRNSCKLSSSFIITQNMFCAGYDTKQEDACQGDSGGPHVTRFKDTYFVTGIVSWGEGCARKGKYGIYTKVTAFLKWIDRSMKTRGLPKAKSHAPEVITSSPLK
factor Xa, sequence (P00742 41-179 partner limits assumed): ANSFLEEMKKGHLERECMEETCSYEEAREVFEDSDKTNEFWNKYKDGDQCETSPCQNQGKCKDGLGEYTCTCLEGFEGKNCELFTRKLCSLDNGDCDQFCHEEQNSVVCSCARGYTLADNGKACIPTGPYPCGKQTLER

Structure (SMILES)	Kd (Human Thrombin)	Kd (Trypsin)	Human Plasma Anticoagulation 2x Clotting time (ng/mL) TT (human or animal plasma [1])	Human Plasma Anticoagulation 2x Clotting time (ng/mL) APTT (human or animal plasma [2])	Human Plasma Anticoagulation 2x Clotting time (ng/mL) PT (human or animal plasma [3])	Kd (factor Xa)
N=C(N)c1ccc(CNC(=O)[C@@H]2CCCN2C(=O)[C@@H](CC2CCCCC2)NCC(=O)O)nn1 [Example 69, HO2CCH2-D-Cha-Pro-3-NHCH2-6-amidinopyridazine·HCl]	2.94 nM	270 nM	5. ng/mL	110 ng/mL	220 ng/mL	
N=C(N)N1CC=C(CNC(=O)[C@@H]2CCCN2C(=O)[C@@H](CC2CCCCC2)NCC(=O)O)CC1 [Example 70, HO2CCH2-D-Cha-Pro-4-NHCH2-1-amidino-3,4-dehydro-piperidine·HCl]	2.33 nM	102 nM	2 ng/mL	160 ng/mL	180 ng/mL	
Nc1cc(CCNC(=O)[C@@H]2CCCN2C(=O)[C@@H](CC2CCCCC2)NCC(=O)O)ccn1 [Example 76, HO2CCH2-D-Cha-Pro-4-NHCH2CH2-2-aminopyridine·HCl]	83.3 nM	2780 nM	29 ng/mL	490 ng/mL	560 ng/mL	
NCc1ccc(CNC(=O)[C@@H]2CCCN2C(=O)[C@@H](CC2CCCCC2)NCC(=O)O)cc1 [Example 78, HO2CCH2-D-Cha-Pro-4-NHCH2C6H4CH2NH2·HCl]	90.9 nM	116 nM	46 ng/mL	430 ng/mL	760 ng/mL	
NCC1CCC(CNC(=O)[C@@H]2CCCN2C(=O)[C@@H](CC2CCCCC2)NCC(=O)O)CC1 (stereo partly drawn) [Example 79, HO2CCH2-D-Cha-Pro-4-NHCH2C6H10CH2NH2·HCl]	500 nM	4170 nM	140 ng/mL	1,700 ng/mL	2,400 ng/mL	
CCS(=O)(=O)N[C@H](CC1CCCCC1)C(=O)N1CCC[C@H]1C(=O)NCc1ccc(C(=N)N)cc1 [Example 80, EtSO2-D-Cha-Pro-4-NHCH2C6H4C(NH)NH2·HCl]	0.588 nM	11.1 nM	4 ng/mL	40 ng/mL	130 ng/mL	
CCS(=O)(=O)N[C@H](CC1CCCCC1)C(=O)N1CCC[C@H]1C(=O)NCc1ccc(CN)cc1 [Example 81, EtSO2-D-Cha-Pro-4-NHCH2C6H4CH2NH2·HCl]	189 nM	476 nM	110 ng/mL	1,500 ng/mL	2,700 ng/mL	
CCS(=O)(=O)N[C@H](CC1CCCCC1)C(=O)N1CCC[C@H]1C(=O)NCc1ccnc(N)c1 [Example 83, EtSO2-D-Cha-Pro-4-NHCH2-2-aminopyridine·HCl]	417 nM	33300 nM	91 ng/mL	1,000 ng/mL	1,300 ng/mL	
CCS(=O)(=O)N[C@H](CC1CCCCC1)C(=O)N1CCC[C@H]1C(=O)NCc1ccc(N)nc1 [Example 84, EtSO2-D-Cha-Pro-5-NHCH2-2-aminopyridine·HCl]	345 nM	14300 nM	110 ng/mL	1,500 ng/mL	1,900 ng/mL	
N=C(N)c1ccc(CNC(=O)[C@@H]2CCCN2C(=O)[C@@H](CC2CCCCC2)NCCCC(=O)O)cc1 [Example 85, HOOCCH2CH2CH2-D-Cha-Pro-p-NHCH2C6H4C(NH)NH2·HCl]	3.77 nM	32.5 nM	4.9 ng/mL	100 ng/mL	197 ng/mL	
N=C(N)c1ccc(CNC(=O)[C@@H]2CCCN2C(=O)[C@H](NCC(=O)O)C2CCCCC2)cc1 [Example 86, HOOCCH2-D-Chg-Pro-p-NHCH2C6H4C(NH)NH2·HCl]	5 nM		4 ng/mL	81 ng/mL	180 ng/mL	1590 nM
N=C(N)c1ccc(CNC(=O)[C@@H]2CCCN2C(=O)[C@@H](CCc2ccccc2)NCC(=O)O)cc1 [Example 87, HOOCCH2-D-hPhe-Pro-p-NHCH2C6H4C(NH)NH2·HCl]	33.3 nM		9 ng/mL	260 ng/mL	310 ng/mL	400 nM
N=C(N)c1ccc(CNC(=O)[C@@H]2CCCN2C(=O)[C@@H](CCC2CCCCC2)NCC(=O)O)cc1 [Example 88, HOOCCH2-D-hCha-Pro-p-NHCH2C6H4C(NH)NH2·HCl]	2.44 nM		4 ng/mL	100 ng/mL	200 ng/mL	256 nM
N=C(N)c1ccc(CNC(=O)CN(CCc2ccccc2)C(=O)CNCC(=O)O)cc1 [Example 89, HOOCCH2-Gly-N-C6H5CH2CH2Gly-p-NHCH2C6H4C(NH)NH2·HCl]	7140 nM		570 ng/mL	51,000 ng/mL	37,000 ng/mL	14100 nM
CCC(CC)C(=O)N[C@@H](CCC(=O)O)C(=O)N1CCC[C@H]1C(=O)NCc1ccc(C(=N)N)cc1 [Example 90, (C2H5)2CHCO-Glu-Pro-p-NHCH2C6H4C(NH)NH2·HCl]	1640 nM		330 ng/mL	14,500 ng/mL	14,600 ng/mL	500000 nM
CCC(CC)C(=O)N[C@@H](CCS(C)(=O)=O)C(=O)N1CCC[C@H]1C(=O)NCc1ccc(C(=N)N)cc1 [Example 91, (C2H5)2CHCO-Met(O2)-Pro-p-NHCH2C6H4C(NH)NH2·HCl]	278 nM		63 ng/mL	3,000 ng/mL	3,500 ng/mL	143000 nM
CS(=O)(=O)CC(=O)N[C@H](CC1CCCCC1)C(=O)N1CCC[C@H]1C(=O)NCc1ccc(C(=N)N)cc1 [Example 92, MeSO2CH2CO-D-Cha-Pro-p-NHCH2C6H4C(NH)NH2·HCl]	7.69 nM	130 nM	8.9 ng/mL	210 ng/mL	340 ng/mL	
